These results are taken from US10004809B2, “Precise delivery of therapeutic agents to cell mitochondria for anti-cancer therapy” (UNIVERSITY OF GEORGIA RESEARCH FOUNDATION, INC., priority 2013, dated 2018).

The test concerns PC3 cells. Kind of test: Cytokine production by treated PC3 cells (ELISA). The format is cell-based, Human. The settings on record: 50 μM, 24 h. The text has this:
Cancer cells recruit several pathways to evade elimination by the immune system (Kim et al., Immunology 121:1-14, 2007). Several mechanisms by which tumor cells escape immunity include upregulation of inhibitory molecules, production of immunosuppressive cytokines, and downregulation of costimulatory molecules (Rabinovich et al., Annu. Rev. Immunol. 25:267-296, 2007). Dendritic cells (DCs), the major players for the initiation of a specific anti-tumor T-cell response, are potential target to tumor-mediated immunosuppression. (Gabrilovich et al., Nat. Med. 2:1096-1103, 1996; Radmayr et al., Int. J. Cancer 63:627-632, 1995; Orsini et al., Cancer Res. 63:4497-4506, 2003.) Lactic acid secretion in highly proliferative glycolytic tumor has the ability to induce alteration in antigen phenotype and functional activity of DCs, which contributes to the suppression of local immunity (Gottfried et al. 2006). Tumor derived lactic acid inhibit the differentiation of monocytes to DCs, impair DC activation and antigen expression and suppress the proliferation, cytokine production and cytotoxic activity of T cells (Fischer et al., Blood 109:3812-3819, 2007). After observing significant and very selective reduction in lactate levels in PCa cells by MITO-DCA, the impact of the reduced lactate producing PC3 cell supernatants on DCs was investigated. […]
For orientation: ELISA stands for enzyme-linked immunosorbent assay.

For `O=C(CCCCC[P+](c1ccccc1)(c1ccccc1)c1ccccc1)NC(COC(=O)C(Cl)Cl)(COC(=O)C(Cl)Cl)COC(=O)C(Cl)Cl.[Br-]` [MITO-DCA], the “Levels of IL-6, IL-10 and TNF-α from PC3 cells, compared with TPP-DCA or Na-DCA” value is given as “higher”.
